Several values for one entry are separate records, joined by “and”; a condition that tells them apart may be missing. Identical values can stand only once.
How the values were obtained:
melanoma cells = assay: Measurement of 40 human cytokines/chemokines in conditioned media of abemaciclib or DMSO treated cancer cells
[1] = test system: human melanoma cells (Melanoma cell line 2686); assay: Abemaciclib doubling time and cytostatic effect; assay type: cell-based; conditions: abemaciclib 500 nM
Experimental: Cell number and viability were determined using the Countess™ II FL Automated Cell Counter (ThermoFisher) on days 2, 4 and 6. All experiments were performed in triplicates. Cell doubling per 24 hours was determined based on cell numbers comparing cells seeded and on day 6 using the following formula: duration (in days) x log(2)/log(final cell number) - log(initial cell number).

UACC257 = assay: scRNA-seq of melanoma cell line before and after treatment with abemaciclib for 1 week; assay type: cell-based, human; conditions: UACC257 (RB1-sufficient); abemaciclib 1 week; 10% prior to treatment
Source text: (§1) To determine this effect in melanoma, Applicants identified melanoma cell lines in the Cancer Cell Line Encyclopedia (CCLE) with the strongest expression of the uICR signature, including IGR37, UACC257 (both RB-sufficient) and A2058 (RB-deficient). Applicants performed scRNA-seq on these cell lines before and after treatment with abemaciclib for 1 week (FIG. 41). In both IGR37 and UACC257, Applicants saw a decrease in the expression of the uICR state (P<3.59*10^−34, one-sided t-test). […] This population decreased from 10% before treatment (2,454 cells) to 2% in the post-treatment condition (1,570 cells).
(§2) To test this hypothesis, Applicants studied the effect of abemaciclib on the immune resistance program in melanoma cell lines. […] Applicants profiled each cell line with scRNA-seq before and after treatment with abemaciclib for 1 week (FIGS. 49D-E), analyzing over 23,000 cells in these and follow-up conditions (below). […]
(§3) Established melanoma cell lines […] and A2058 were acquired from the Cancer Cell Line Encyclopedia (CCLE) from the Broad Institute. […] Cells were lifted off culture dishes using Versene solution (Life Technologies), washed twice in 1×PBS, counted and resuspended in PBS supplemented with 0.04% BSA for loading for scRNA-seq with the 10X Genomics platform.

IGR37 = assay: as above; assay type: cell-based, human; conditions: IGR37 (RB1-sufficient); abemaciclib 1 week; 10% prior to treatment
Source text: as §1, §2, §3

CCN1CCN(Cc2ccc(Nc3ncc(F)c(-c4cc(F)c5nc(C)n(C(C)C)c5c4)n3)nc2)CC1 [abemaciclib]
Fold change (abemaciclib vs. DMSO treatment) (melanoma cells; Hu 6Ckine/CCL21): 0.9700
Fold change (abemaciclib vs. DMSO treatment) (melanoma cells; Hu CTACK/CCL27): 1.0834
Fold change (abemaciclib vs. DMSO treatment) (melanoma cells; Hu ENA-78/CXCL5): 1.0188
Fold change (abemaciclib vs. DMSO treatment) (melanoma cells; Hu Eotaxin-3/CCL26): 3.0279
Fold change (abemaciclib vs. DMSO treatment) (melanoma cells; Hu Eotaxin/CCL11): 0.9599
Fold change (abemaciclib vs. DMSO treatment) (melanoma cells; Hu Fractalkine/CX3CL1): 2.1863
Fold change (abemaciclib vs. DMSO treatment) (melanoma cells; Hu GCP-2/CXCL6): 0.6386
Fold change (abemaciclib vs. DMSO treatment) (melanoma cells; Hu GM-CSF): 1.0191
Fold change (abemaciclib vs. DMSO treatment) (melanoma cells; Hu Gro-a/CXCL1): 0.9135
Fold change (abemaciclib vs. DMSO treatment) (melanoma cells; Hu Gro-b/CXCL2): 0.7471
Fold change (abemaciclib vs. DMSO treatment) (melanoma cells; Hu I-309/CCL1): 1.0389
Fold change (abemaciclib vs. DMSO treatment) (melanoma cells; Hu I-TAC/CXCL11): 0.9524
Fold change (abemaciclib vs. DMSO treatment) (melanoma cells; Hu IL-1b): 1.0719
Fold change (abemaciclib vs. DMSO treatment) (melanoma cells; Hu IL-2): 0.5882
Fold change (abemaciclib vs. DMSO treatment) (melanoma cells; Hu IL-4): 1.6605
Fold change (abemaciclib vs. DMSO treatment) (melanoma cells; Hu IL-6): 0.3788
Fold change (abemaciclib vs. DMSO treatment) (melanoma cells; Hu IL-8): 0.7253
Fold change (abemaciclib vs. DMSO treatment) (melanoma cells; Hu IL-10): 1.0079
Fold change (abemaciclib vs. DMSO treatment) (melanoma cells; Hu IL-16): 0.8482
Fold change (abemaciclib vs. DMSO treatment) (melanoma cells; Hu IP-10/CXCL10): 0.9103
Fold change (abemaciclib vs. DMSO treatment) (melanoma cells; Hu MCP-1/CCL2): 0.7175
Fold change (abemaciclib vs. DMSO treatment) (melanoma cells; Hu MCP-2/CCL8): 1.0388
Fold change (abemaciclib vs. DMSO treatment) (melanoma cells; Hu MCP-3/CCL7): 1.0422
Fold change (abemaciclib vs. DMSO treatment) (melanoma cells; Hu MCP-4/CCL13): 0.8887
Fold change (abemaciclib vs. DMSO treatment) (melanoma cells; Hu MDC/CCL22): 1.1142
Fold change (abemaciclib vs. DMSO treatment) (melanoma cells; Hu MIF): 2.9587
Fold change (abemaciclib vs. DMSO treatment) (melanoma cells; Hu MIP-1a/CCL3): 1.0350
Fold change (abemaciclib vs. DMSO treatment) (melanoma cells; Hu MIP-3a/CCL20): 3.4000
Fold change (abemaciclib vs. DMSO treatment) (melanoma cells; Hu MIP-3b/CCL19): 0.8717
Fold change (abemaciclib vs. DMSO treatment) (melanoma cells; Hu MIP-1d/CCL15): 1.0809
Fold change (abemaciclib vs. DMSO treatment) (melanoma cells; Hu SCYB16/CXCL16): 1.1278
Fold change (abemaciclib vs. DMSO treatment) (melanoma cells; Hu SDF1a + b/CXCL12): 0.8885
Fold change (abemaciclib vs. DMSO treatment) (melanoma cells; Hu TARC/CCL17): 1.0104
Fold change (abemaciclib vs. DMSO treatment) (melanoma cells; Hu TECK/CCL25): 1.5510
Fold change (abemaciclib vs. DMSO treatment) (melanoma cells; Hu TNF-a): 0.7465
cytotoxic effects [1]: do not find significant cytotoxic effects
rate of proliferation ([1]; DMSO 0.64): 0.3 doublings/24 hrs
fraction of cells with exceptionally strong expression of the immune resistance program ("immune resistant" cells) post-treatment (UACC257): 1% and 0.6%
fraction of cells with exceptionally strong expression of the immune resistance (uICR) program ("immune resistant" cells) post-treatment (IGR37): 2%

Source: patent US12043870B2, “Methods and compositions for detecting and modulating an immunotherapy resistance gene signature in cancer” (The Broad Institute, Inc., priority 2017, dated 2024)
